# Assays:
# [1] = target: T1, glucosyltransferase (EATC enzyme) (Mus musculus, UniProt O88693); assay: Glucosyltransferase assay, microsomes from EATC; type: biochemical
# T1 construct: Microsomes from EATC (0.50 mg protein) required 20 μM PDMP to reduce the glucosyltransferase activity in half; endogenous in cells; host or cells: Ehrlich ascites tumor cells (EATC), microsomes
# T1 sequence (O88693 1-394): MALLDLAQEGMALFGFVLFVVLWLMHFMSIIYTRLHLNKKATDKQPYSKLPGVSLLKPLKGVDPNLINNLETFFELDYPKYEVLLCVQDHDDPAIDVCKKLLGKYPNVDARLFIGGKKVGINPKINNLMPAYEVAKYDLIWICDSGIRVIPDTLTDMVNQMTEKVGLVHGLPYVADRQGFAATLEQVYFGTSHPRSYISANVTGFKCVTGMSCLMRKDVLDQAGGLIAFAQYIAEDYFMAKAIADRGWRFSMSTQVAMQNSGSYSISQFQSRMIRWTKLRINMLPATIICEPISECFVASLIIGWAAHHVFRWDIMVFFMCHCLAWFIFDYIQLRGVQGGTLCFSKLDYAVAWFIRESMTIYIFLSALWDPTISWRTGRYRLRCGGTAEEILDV
# Procedure: Evidence that D-threo-PDMP acts to inhibit GlcCer biosynthesis was provided as follows from assay of glucosyltransferase. Microsomes as source of enzyme were prepared by highspeed centrifugation and stored at -70° C. before use. The incubations were at 37° C. for 30 minutes with microsomes, ATP, liposomal octanoyl sphingosine, UDP-[^3 H]glu, Mg^2+, and dithioerythritol. Microsomes from EATC (0.50 mg protein) required 20 μM PDMP to reduce the glucosyltransferase activity in half. The microsomes from normal liver (72 μg protein) required 5 μM D-threo-PDMP. While the EATC enzyme seems to be less sensitive to the inhibitor, the intraperitoneal concentration of inhibitor is initially very high.
# [2] = Toxicity test in normal, noncancerous mice; type: in vivo
# Procedure: Ten normal, noncancerous mice were injected with D-threo-PDMP daily for 10 days, then killed 5 hours later with the results set forth in Table 4.
# The preceding experiment was repeated in order to observe less evancescent responses: the mice were killed 40 hours after the last injection following 12 daily injections. Here, of the absolute weights, only the kidneys were statistically different in treated mice, 11% smaller (p less than 0.05%). Comparing the 40 hour and 5 hour experiments it seems likely that the liver weights renormalized faster than the kidneys, perhaps a reflection of faster glucolipid turnover.
# This failure to harm the bone marrow and related systems compares favorably with the high toxicity of many antineoplastics.
# [3] = 100 mg/kg/day, 10 injections, killed 5 hours later
smiles,measurement,setting,value
"CCCCCCCCCC(=O)N[C@H](CN1CCOCC1)[C@H](O)c1ccccc1 [D-threo-PDMP, 1-Phenyl-2-Decanoylamino-3-Morpholino-1-Propanol]",IC50,[1],20 µM
same,Average body weight gain of treated mice,"[2]; 100 mg/kg/day, 10 injections, controls gained 4.5 g",2.1 g
same,Body weight smaller than controls,[2]; [3],8%
same,Brain Weight,[2]; [3],0.444 g
same,Brain Weight (% of body),[2]; [3],1.67 % of body
same,Kidney Weight,[2]; [3],0.329 g
same,Kidney Weight (% of body),[2]; [3],1.24 % of body
same,Kidney weight smaller than controls,[2]; [3],17%
same,Liver Weight,[2]; [3],1.32 g
same,Liver Weight (% of body),[2]; [3],4.97 % of body
same,Liver weight smaller than controls,[2]; [3],18%
same,Spleen Weight,[2]; [3],0.095 g
same,Spleen Weight (% of body),[2]; [3],0.36 % of body
same,Spleen size compared with controls,[2]; [3],slightly but not significantly smaller
same,Body Weight,"[2]; 100 mg/kg/day, 10 injections, killed 5 hours later, initial mean 24.4 g",26.5 g
same,Brain weight smaller than controls,"[2]; 100 mg/kg/day, 10 injections, killed 5 hours later, p less than 0.025",4.6%
same,"Cell counts on orbital blood (RBC, WBC, differential monocytes, lymphocytes, eosinophiles, neutrophils)",[2]; 12 daily injections,no abnormalities
same,Kidney weight (absolute) smaller than controls,"[2]; 12 daily injections, killed 40 hours after the last injection",11%

# Reference: patent US5041441A, “Method of chemotherapy using 1-phenyl-2-decanoylamino-3-morpholino-1-propanol” (The Regents of the University of Michigan, priority 1988, dated 1991)
